# Measured values: patent US20230022724A1, “NOVEL IMIDAZOPYRAZINE DERIVATIVES” (Hoffmann-La Roche Inc., priority 2018, published 2023)
# Where a name gives a salt, the structure may show the parent alone.
# Tested on: Acinetobacter baumannii ATCC17978
# Experiment: Antimicrobial susceptibility testing: 90% growth inhibitory concentration (IC90) determination
# Format: cell-based
# Details: 90% growth inhibitory concentration, Acinetobacter baumannii ATCC17978, Iso-Sensitest broth, OD 600 nm over 16 h; read-out: ATCC17978 IC90
# Summary of the method: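 Compounds in twofold series (e.g. 50 to 0.097 μM final) in Iso-Sensitest broth, inoculated at ~5×10^5 CFU/ml, incubated at 35±2° C. OD600 was read every 20 minutes for 16 h. IC90 was derived from growth inhibition during logarithmic phase.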
row,Molecule,IC90 [nM]
1,"(R)-1-(2-chloro-4-((3-(3-fluoro-4-methoxyphenyl)imidazo[1,2-a]pyrazin-8-yl)amino)benzoyl)-N-(pyrrolidin-3-yl)piperidin-4-carboxamide hydrochlroide [Example 17]",220

# Same assay, conditions: Acinetobacter baumannii, ATCC17978, 16 h, 90% growth inhibitory concentration, Acinetobacter baumannii ATCC17978, Iso-Sensitest broth, OD 600 nm over 16 h; read-out: ATCC17978 IC90
row,IC90 [nM],Molecule
1,49,"N#CCOc1ccc(-c2cnc3c(Nc4ccc(C(=O)N5CCC(CN)CC5)c(Cl)c4)nccn23)c(F)c1F [Example 12, 2-(4-(8-((4-(4-(aminomethyl)piperidine-1-carbonyl)-3-chlorophenyl)amino)imidazo[1,2-a]pyrazin-3-yl)-2,3-difluorophenoxy)acetonitrile]"
2,630,"N#CCOc1ccc(-c2cnc3c(Nc4ccc(C(=O)N5CCN(CCN6CCC[C@H]6C(=O)O)CC5)c(Cl)c4)nccn23)c(F)c1F [Example 104, (2-(4-(2-chloro-4-((3-(4-(cyanomethoxy)-2,3-difluorophenyl)imidazo[1,2-a]pyrazin-8-yl)amino)benzoyl)piperazin-1-yl)ethyl)proline trifluoroacetate]"
3,85,"C#CCOc1ccc(-c2cnc3c(Nc4ccc(C(=O)N5CCC(CN)CC5)c(Cl)c4)nccn23)c(F)c1F [Example 75, [4-(aminomethyl)piperidin-1-yl]-[2-chloro-4-[[3-(2,3-difluoro-4-prop-2-ynoxyphenyl)imidazo[1,2-a]pyrazin-8-yl]amino]phenyl]methanone]"
4,160,"N#CCOc1ccc(-c2cnc3c(Nc4ccc(C(=O)N5CCOCC5)c(Cl)c4)nccn23)c(F)c1F [Example 79, 2-[4-[8-[3-chloro-4-(morpholine-4-carbonyl)anilino]imidazo[1,2-a]pyrazin-3-yl]-2,3-difluorophenoxy]acetonitrile]"
5,150,"N#CCOc1ccc(-c2cnc3c(Nc4ccc(C(=O)N5CCC(n6cnnc6)CC5)c(Cl)c4)nccn23)c(F)c1F [Example 24, 2-[4-[8-[3-chloro-4-[4-(1,2,4-triazol-4-yl)piperidine-1-carbonyl]anilino]imidazo[1,2-a]pyrazin-3-yl]-2,3-difluoro-phenoxy]acetonitrile]"
6,73,"CNCC(=O)N1CCN(C(=O)c2ccc(Nc3nccn4c(-c5ccc(OCC#N)c(F)c5F)cnc34)cc2Cl)CC1 [Example 77, 2-[4-[8-[3-chloro-4-[4-[2-(methylamino)acetyl]piperazine-1-carbonyl]anilino]imidazo[1,2-a]pyrazin-3-yl]-2,3-difluorophenoxy]acetonitrile]"
7,1100,"COc1ccc(-c2cnc3c(Nc4ccc(C(=O)N5CCN(CCO)CC5)cc4)nccn23)cc1 [Example 63, [4-(2-hydroxyethyl)piperazin-1-yl]-[4-[[3-(4-methoxyphenyl)imidazo[1,2-a]pyrazin-8-yl]amino]phenyl]methanone]"
8,79,"CN(C)CCNC1CCN(C(=O)c2ccc(Nc3nccn4c(-c5ccc(OCC#N)c(F)c5Cl)cnc34)cc2Cl)CC1 [Example 25, 2-[3-chloro-4-[8-[3-chloro-4-[4-[2-(dimethylamino)ethylamino]piperidine-1-carbonyl]anilino]imidazo[1,2-a]pyrazin-3-yl]-2-fluorophenoxy]acetonitrile; 2,2,2-trifluoroacetic acid]"
9,280,"CN(C)CCN1CCN(C(=O)c2ccc(Nc3nccn4c(-c5ccc(OCC#N)c(F)c5F)cnc34)cc2Br)CC1 [Example 78, 2-[4-[8-[3-bromo-4-[4-[2-(dimethylamino)ethyl]piperazine-1-carbonyl]anilino]imidazo[1,2-a]pyrazin-3-yl]-2,3-difluorophenoxy]acetonitrile; formic acid]"
10,200,"COc1ccc(-c2cnc3c(Nc4ccc(C(=O)N5CCC(C(=O)N[C@@H]6CCNC6)CC5)c(Cl)c4)nccn23)c(F)c1F [Example 39, (R)-1-(2-chloro-4-((3-(2,3-difluoro-4-methoxyphe-nyl)imida-zo[1,2-a]pyrazin-8-yl)amino)benzoyl)-N-(pyrrolidin-3-yl)piperidine-4-carboxamide hydrochloride]"
11,130,"CNCCN1CCN(C(=O)c2ccc(Nc3nccn4c(-c5ccc(OC)c(F)c5)cnc34)cc2Cl)CC1 [Example 20, (2-chloro-4-((3-(3-fluoro-4-methoxyphenyl)imidazo[1,2-a]pyrazin-8-yl)amino)phenyl)(4-(2-(methylamino)ethyl)piperazin-1-yl)methanone]"
12,160,"Cn1cnnc1C1CCN(C(=O)c2ccc(Nc3nccn4c(-c5ccc(OCC#N)c(F)c5F)cnc34)cc2Cl)CC1 [Example 23, 2-[4-[8-[3-chloro-4-[4-(4-methyl-1,2,4-triazol-3-yl)piperidine-1-carbonyl]anilino]imidazo[1,2-a]pyrazin-3-yl]-2,3-difluoro-phenoxy]acetonitrile; 2,2,2-trifluoroacetic acid]"
13,180,"CNCC(=O)N1CCN(C(=O)c2ccc(Nc3nccn4c(-c5ccc(OC)c(F)c5)cnc34)cc2Cl)CC1 [Example 18, 1-(4-(2-chloro-4-((3-(3-fluoro-4-methoxyphenyl)imidazo[1,2-a]pyrazin-8-yl)amino)benzoyl)piperazin-1-yl)-2-(methylamino)ethan-1-one hydrochloride]"
14,330,"COc1ccc(-c2cnc3c(Nc4ccc(C(=O)N5CCN(CCN6CCC6)CC5)c(Cl)c4)nccn23)cc1F [Example 57, [4-[2-(azetidin-1-yl)ethyl]piperazin-1-yl]-[2-chloro-4-[[3-(3-fluoro-4-methoxyphenyl)imidazo[1,2-a]pyrazin-8-yl]amino]phenyl]methanone]"

# Same assay, conditions: Acinetobacter baumannii, ATCC17978, 16 h, read-out: ATCC17978 IC90
row,Molecule,IC90 [nM]
1,"N#CCOc1ccc(-c2cnc3c(Nc4ccc(C(=O)N5CCN(CCN6CC(CO)C6)CC5)c(Cl)c4)nccn23)c(F)c1F [Example 92, 2-[4-[8-[3-chloro-4-[4-[2-[3-(hydroxymethyl)azetidin-1-yl]ethyl]piperazine-1-carbonyl]anilino]imidazo[1,2-a]pyrazin-3-yl]-2,3-difluorophenoxy]acetonitrile; 2,2,2-trifluoroacetic acid]",50
2,"CC(C#N)Oc1ccc(-c2cnc3c(Nc4ccc(C(=O)N5CCN(CCCN(C)C)CC5)c(Cl)c4)nccn23)c(F)c1F (centres unmarked) [Example 42, 2-[4-[8-[3-chloro-4-[4-[3-(dimethylamino)pro-pyl]piperazine-1-carbonyl]anilino]imi-dazo[1,2-a]pyrazin-3-yl]-2,3-difluoro-phenoxy]propanenitrile]",200
3,"CN(C)C1CCN(CCN2CCN(C(=O)c3ccc(Nc4nccn5c(-c6ccc(OCC#N)c(F)c6F)cnc45)cc3Cl)CC2)C1 (centres unmarked) [Example 100, 2-[4-[8-[3-chloro-4-[4-[2-[3-(dimethylamino)pyrrolidin-1-yl]ethyl]piperazine-1-carbonyl]anilino]imidazo[1,2-a]pyrazin-3-yl]-2,3-difluorophenoxy]acetonitrile; 2,2,2-trifluoroacetic acid]",170
4,"CN(C)CC1CN(CCN2CCN(C(=O)c3ccc(Nc4nccn5c(-c6ccc(OCC#N)c(F)c6F)cnc45)cc3Cl)CC2)C1 [Example 99, 2-[4-[8-[3-chloro-4-[4-[2-[3-[(dimethylamino)methyl]azetidin-1-yl]ethyl]piperazine-1-carbonyl]anilino]imidazo[1,2-a]pyrazin-3-yl]-2,3-difluorophenoxy]acetonitrile; 2,2,2-trifluoroacetic acid]",170
5,"CNCCNC(=O)C1CCN(C(=O)c2ccc(Nc3nccn4c(-c5ccc(OC)c(F)c5)cnc34)cc2Cl)CC1 [Example 16, 1-(2-chloro-4-((3-(3-fluoro-4-methoxyphenyl)imidazo[1,2-a]pyrazin-8-yl)amino)benzoyl)-N-(2-(methylamino)ethyl)piperidine-4-carboxamide hydrochloride]",100
